Several values for one entry are separate records, joined by “and”; a condition that tells them apart may be missing. Equal entries are not always repeated. Some results are limits rather than exact numbers.

The text below walks through data of patent US12698262B2, “Potassium salt of 2-[(4S)-8-fluoro-2-[4-(3-methoxyphenyl)piperazin-1-yl]-3-[2-methoxy-5-(trifluoromethyl)phenyl]-4H-quinazolin-4-yl]acetic acid” (AIC246 AG & Co. KG, priority 2020, dated 2026).

A short description of this data set: Solubility test in buffers of different pHs (excess salt, HPLC determination of dissolved letermovir, final pH of mixture). The class given is physicochemical. As to conditions: for Solubility / solubility at 2 h: stirred two hours at room temperature; for Solubility / Final pH / solubility at 2 h: Entries 1-3; for Final pH: final mixture; for solubility at 2 h: thermodynamic from solid. As to the method:
Single Crystal X-ray Diffraction (SCXRD): The measured crystal was selected using a Zeiss stereomicroscope using polarized light and prepared under inert conditions immersed in perfluoropolyether as protecting oil for manipulation. Crystal structure determination was carried out using a Rigaku diffractometer equipped with a Pilatus 200K area detector, a Rigaku MicroMax-007HF microfocus rotating anode with MoKα radiation, Confocal Max Flux optics and an Oxford Cryosystems low temperature device Cryostream 700 plus (T=−173° C.). Full-sphere data collection was used with ω and φ scans. Programs used: Data collection and reduction with CrysAlisPro (Rigaku OD, 2015). V/0.60 A and absorption correction with Scale3 Abspack scaling algorithm (CrysAlisPro 1.171.39.12b (Rigaku OD, 2015)). Crystal structure solution was achieved using the computer program SHELXT (Sheldrick, G. M. Acta Cryst. 2015 A71, 3-8.) and visualized using the program SHELXle (C. B. Huebschle, G. M. Sheldrick & B. Dittrich; J. Appl. Cryst., 2011 44, 1281-1284). Missing atoms were subsequently located from difference Fourier synthesis and added to the atom list. Least-squares refinement on F0^2 using all measured intensities was carried out using the program SHELXL 2015 (SHELXL; Sheldrick, G. M. Acta Cryst., 2015 A71, 3-8.). All non-hydrogen atoms were refined including anisotropic displacement parameters. High Performance Liquid Chromatography (HPLC): • Instrument: Thermo Scientific Ultimate 3000 UHPLC • Column: Agilent Zorbax Eclipse XDB C-18, 150×4.6 mm, 5 μm • Flow rate: 1.0 ml/min • Solvent A: 0.1% formic acid in water • Solvent B: 0.1% formic acid in 100% methanol • Stop time: 27 minutes • Injection volume: 10 μl • Column temperature: 35° C. • Wavelength: 260 nm • Autosampler temperature: 10° C.
An excess of letermovir potassium mixed solvate (the salt of Example 1) or letermovir sodium mixed solvate (the salt of Example 4) was added to 2 mL of the corresponding buffer of different pHs. The saturated suspensions were stirred for two hours at room temperature. […] The final pH of the mixtures was also determined.

Consider `COc1cccc(N2CCN(C3=Nc4c(F)cccc4[C@H](CC(=O)[O-])N3c3cc(C(F)(F)F)ccc3OC)CC2)c1.[K+]` [crystalline potassium salt of letermovir, potassium 2-[(4S)-8-fluoro-2-[4-(3-methoxyphenyl)piperazin-1-yl]-3-[2-methoxy-5-(trifluoromethyl)phenyl]-4H-quinazolin-4-yl]acetate], for which the “pH of the final solution” value (aqueous medium, when letermovir concentration is above 100 mg/mL) is 7.4-7.8 and 7-8. Further, the “concentration levels achieved by dissolving in aqueous medium” value (aqueous medium, with respect to letermovir free base) is listed as “above 100 mg/mL”.

Turning to `COc1cccc(N2CCN(C3=Nc4c(F)cccc4[C@H](CC(=O)[O-])N3c3cc(C(F)(F)F)ccc3OC)CC2)c1.[K+]` (mixture of isomers) [potassium salt mixed solvate, potassium 2-[(4S)-8-fluoro-2-[4-(3-methoxyphenyl)piperazin-1-yl]-3-[2-methoxy-5-(trifluoromethyl)phenyl]-4H-quinazolin-4-yl]acetate], the Solubility (as a rule, the dissolved amount per volume that the medium holds) reads like this: (buffer pH 2) 10.63 mg/mL; (buffer pH 5) 16.50 mg/mL; (buffer pH 6) 1.17 mg/mL. The “Final pH” value was 4.5 and 6.6 (initial buffer pH 1); 7.2 and 7.3 (initial buffer pH 2); 7.1 and 7.2 (initial buffer pH 5); 6.3 (initial buffer pH 6); 7.1 and 7.0 and 7.4 (initial buffer pH 7); 7.7 and 7.6 (initial buffer pH 8). Further, under “initial buffer pH 9”, the “Final pH” value is 7.7. In addition, the solubility (as a rule, the concentration that dissolves in the medium under given conditions) at 2 h runs as follows: (pH 2, simulated gastric fluid, buffer pH 2) 14.4 mg/mL; (pH 5, aqueous buffer, buffer pH 5) 14.3 mg/mL; (pH 6, aqueous buffer, buffer pH 6) 1.27 mg/mL; (pH 8, aqueous buffer, buffer pH 8) greater than 100 mg/mL; (pH 9, aqueous buffer, buffer pH 9) greater than 100 mg/mL.
